Test results from the supplement of paper PMC10307832.

Assays:
Experiment in all cases: relative viability (nuclei count vs DMSO), 5 days (fraction); higher = more cells survive
Carboplatin + OSI-027 = compound: C1CC(C1)(C(=O)O)C(=O)O.[NH2-].[NH2-].[Pt+2] [Carboplatin] + COc1cccc2cc(-c3nc([C@H]4CC[C@H](C(=O)O)CC4)n4ncnc(N)c34)[nH]c12 [OSI-027] (partner 0.5 µM)
How it was run: (§1)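 Lung cancer cell lines were seeded in 1536-well plates and dosed by pin tool the next day, with either a single drug or a fixed anchor-drug dose combined with five library-drug doses (not always all listed) spaced in √10 steps. Five days later, one step fixed the cells and stained their nuclei (final 0.05% Triton X-100, 1% formaldehyde, 1 ug/ml Hoechst), and nuclei were counted on 4× images. Relative viability is the nuclei count in treated wells divided by the count in vehicle wells, and each value is the median of duplicate plates.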

Carboplatin + Crizotinib = compound: C1CC(C1)(C(=O)O)C(=O)O.[NH2-].[NH2-].[Pt+2] [Carboplatin] + C[C@@H](Oc1cc(-c2cnn(C3CCNCC3)c2)cnc1N)c1c(Cl)ccc(F)c1Cl [Crizotinib] (partner 1 µM)
How it was run: as §1

Carboplatin + Decitabine = compound: C1CC(C1)(C(=O)O)C(=O)O.[NH2-].[NH2-].[Pt+2] [Carboplatin] + Nc1ncn([C@H]2C[C@H](O)[C@@H](CO)O2)c(=O)n1 [Decitabine] (partner 2 µM)
How it was run: as §1

MLN4924 + Palbociclib = compound: NS(=O)(=O)OC[C@@H]1C[C@@H](n2ccc3c(N[C@H]4CCc5ccccc54)ncnc32)C[C@@H]1O [MLN4924] + CC(=O)c1c(C)c2cnc(Nc3ccc(N4CCNCC4)cn3)nc2n(C2CCCC2)c1=O [Palbociclib] (partner 0.5 µM)
How it was run: as §1

UMC-11
relative viability (Carboplatin + OSI-027; first compound 0.08 µM): 0.462
relative viability (Carboplatin + OSI-027; first compound 0.253 µM): 0.432
relative viability (Carboplatin + OSI-027; first compound 0.8 µM): 0.456
relative viability (Carboplatin + OSI-027; first compound 2.53 µM): 0.462
relative viability (Carboplatin + OSI-027; first compound 8 µM): 0.405
relative viability (Carboplatin + Crizotinib; first compound 0.08 µM): 0.721
relative viability (Carboplatin + Crizotinib; first compound 0.253 µM): 0.652
relative viability (Carboplatin + Crizotinib; first compound 0.8 µM): 0.515
relative viability (Carboplatin + Crizotinib; first compound 2.53 µM): 0.484
relative viability (Carboplatin + Crizotinib; first compound 8 µM): 0.301
relative viability (Carboplatin + Decitabine; first compound 0.08 µM): 0.596
relative viability (Carboplatin + Decitabine; first compound 0.253 µM): 0.626
relative viability (Carboplatin + Decitabine; first compound 0.8 µM): 0.482
relative viability (Carboplatin + Decitabine; first compound 2.53 µM): 0.576
relative viability (Carboplatin + Decitabine; first compound 8 µM): 0.418
relative viability (MLN4924 + Palbociclib; first compound 0.04 µM): 0.335
relative viability (MLN4924 + Palbociclib; first compound 0.1265 µM): 0.336
relative viability (MLN4924 + Palbociclib; first compound 0.4 µM): 0.321
relative viability (MLN4924 + Palbociclib; first compound 1.265 µM): 0.245
relative viability (MLN4924 + Palbociclib; first compound 4 µM): 0.249
